Source: US20110306561A1, “COMPLEMENT C3a DERIVED DIMERIC PEPTIDES AND USES THEREOF” (Yeda Research And Devlopment Co. Ltd., priority 2009, published 2011)
Read-outs that look alike come from different tables or passages of the source. Residues, ends and D or L forms follow the SMILES beside them. No end group written: not given here.

Experiments:
RBL-2H3 cells [1] = format: cell-based, rat
Description: Mediator secretion by the rat mucosal mast cells, RBL-2H3-line, in response to stimulation by FcεRI clustering was monitored by measuring the activity of the secreted granular enzyme β-hexosaminidase. To this end, a monoclonal DNP-specific murine IgE-class antibody (rat clone 95.3, 1:10^3 dilution) was added to 15×10^6 cells in 10 ml DMEM and incubated in 96 well plates (100 μl suspension/well) for 2 hours. The cell monolayers were then washed three times with Tyrode's buffer (137 mM NaCl, 2.7 mM KCl, 1.8 mM CaCl2, 0.5 mM MgCl2, 0.4 mM NaH2PO4, 5.6 mM glucose, 10 mM Hepes, 0.1% BSA, pH 7.4.) and stimulated with BSA derivatized by an average of 11 DNP groups per molecule (DNP11-BSA) serving as an antigen. To study the effect of the peptides on antigen-induced response, RBL-2H3 cells were pre-incubated with various concentrations of the peptides for 5 minutes at room temperature before the antigen was added at the pre-determined suboptimal dose. The peptides were present throughout the assay. After 1 hour incubation at 37 ° C., 25 μl of the cell supernatants were removed and incubated with 50 μl of β-hexosaminidase substrate solution (1.3 mg/ml p-nitrophenyl-N-acetyl-β-D-glucosamine in 0.1 M sodium citrate, pH 4.5) at 37° C. for 45 minutes. The reaction was terminated by the addition of 150 μl of 0.2 M glycine, pH 10.7, and the optical density of the samples was measured at 405 nm. […] The total enzyme content of the cells/well (following lysis by triton-x-100) and the spontaneous enzyme release of the cells/well was measured in each experiment. All experiments were performed in triplicate and the results were calculated as net secreted enzyme activity (as fraction or percentage of total cell-content) in response to the stimulus.

RBL-2H3 cells [2] = details: Erdei et al. 1995, 1999; cited from earlier work
[3] = Circular dichroism (CD) measurement of ordered structure; format: physicochemical; details: 100 μg/ml in PBS, room temperature; CD+/CD− not defined
Description: In order to assess possible structural features that characterize the active peptides, CD measurement were carried out. The CD measurements were performed on an Applied Photophysics spetrometer in 1 mm light path cell, at room temperature (about 25° C.). The peptides stock solutions were usually of 5 mg/ml in water and the measurements were done at a 100 μg/ml dilution in PBS.

Molecule	Inhibition of secretion of 3H2 of RBL cells (IC50) (RBL-2H3 cells [1]) [µg/mL]	Effect on IgE-mediated degranulation of RBL-2H3 cells (literature) (RBL-2H3 cells [2])	also measured
CC[C@H](C)[C@H](NC(=O)[C@H](Cc1ccc(O)cc1)NC(=O)[C@H](CC(N)=O)NC(=O)[C@H](CO)NC(=O)[C@H](CSSC[C@H](NC(=O)[C@@H](N)CC(=O)O)C(=O)N[C@@H](CO)C(=O)N[C@@H](CC(N)=O)C(=O)N[C@@H](Cc1ccc(O)cc1)C(=O)N[C@H](C(=O)N[C@H](C(=O)N[C@@H](CCCNC(=N)N)C(=O)O)[C@@H](C)O)[C@@H](C)CC)NC(=O)[C@@H](N)CC(=O)O)C(=O)N[C@H](C(=O)N[C@@H](CCCNC(=N)N)C(=O)O)[C@@H](C)O [Dimer A (5508)2] (HELM PEPTIDE1{D.C.S.N.Y.I.T.R}|PEPTIDE2{D.C.S.N.Y.I.T.R}$PEPTIDE1,PEPTIDE2,2:R3-2:R3$$$V2.0; N-terminus and C-terminus assumed)	15	–	–
CC[C@H](C)[C@H](NC(=O)[C@H](Cc1ccc(O)cc1)NC(=O)[C@H](CC(N)=O)NC(=O)[C@H](CSSC[C@H](NC(=O)[C@H](CO)NC(=O)[C@@H](N)CC(=O)O)C(=O)N[C@@H](CC(N)=O)C(=O)N[C@@H](Cc1ccc(O)cc1)C(=O)N[C@H](C(=O)N[C@H](C(=O)N[C@@H](CCCNC(=N)N)C(=O)O)[C@@H](C)O)[C@@H](C)CC)NC(=O)[C@H](CO)NC(=O)[C@@H](N)CC(=O)O)C(=O)N[C@H](C(=O)N[C@@H](CCCNC(=N)N)C(=O)O)[C@@H](C)O [Dimer B (5513)2] (HELM PEPTIDE1{D.S.C.N.Y.I.T.R}|PEPTIDE2{D.S.C.N.Y.I.T.R}$PEPTIDE1,PEPTIDE2,3:R3-3:R3$$$V2.0; N-terminus and C-terminus assumed)	25	–	–
CC[C@H](C)[C@H](NC(=O)[C@H](Cc1ccc(O)cc1)NC(=O)[C@H](CC(N)=O)NC(=O)[C@H](CS)NC(=O)[C@H](CS)NC(=O)[C@@H](N)CC(=O)O)C(=O)N[C@H](C(=O)N[C@@H](CCCNC(=N)N)C(=O)O)[C@@H](C)O [Monomer C3a9, reference compound] (H-DCCNYITR-OH; N-terminus and C-terminus assumed)	200	–	–
DCSNYITR [Monomer A (5508)]	75	–	–
Intact human C3a: human complement component C3a, a 77-mer polypeptide as set forth in SEQ ID NO:1	–	inhibit the IgE-mediated degranulation of RBL-2H3 cells	Circular Dichroism [3]: CD+; Inhibition of secretion of 3H2 of RBL cells (IC50) (RBL-2H3 cells [1]; suboptimal DNP11-BSA antigen stimulus, β-hexosaminidase): 2 µg/mL
C5a: complement activation product C5a, anaphylatoxin (protein, UniProt P01031 678-751, looked up, C5a anaphylatoxin) C5a anaphylatoxin: TLQKKIEEIAAKYKHSVVKKCCYDGACVNNDETCEQRAARISLGPRCIKAFTECCVVASQLRANISHKDMQLGR	–	no effect	–
